In patent publication US20200038478A1, “POLYPEPTIDE AND COMPOSITION THEREOF FOR TREATING DISEASES OF METABOLIC SYSTEM” (WUHAN GRECTECH CO., LTD., priority 2017, published 2020):
Counter-ions that a name gives are not always drawn.

How the values were obtained:
diabetic mice [1] = assay: Serum TC and TG in STZ diabetic mice after 4 weeks (Example 25); type: in vivo; conditions: after 4 weeks intragastric treatment, STZ + high-fat diet BALB/c mice
Protocol: Male BALB/c mice at 7 weeks of age, after adapting to the environment for 2 days, were randomly divided into normal control group (10 mice) and model-to-be established groups (70 mice). The mice in the normal control group were fed with normal diet. The mice in the model-to-be established groups were fed with high-fat diet, intraperitoneally injected with streptozotocin (STZ) in citrate buffer at a dose of 100 mg/kg, and then the diabetic mouse model was established. […] The mice with the blood glucouse level higher than 11.0 mmol/L and at the same time having polydipsia and polyuria were selected out as the diabetic mice. Then the selected diabetic mice were randomly divided into four groups: model control group, metformin group, Composition E group and Composition F group, 10 mice in each group. The mice were intragastric administered with the corresponding drugs: normal saline (100 μL for each mouse), metformin (0.05 ml/10 g), Composition E (0.05 ml/10 g) and Composition F (0.05 ml/10 g), respectively, once a day for 4 weeks. The mice in normal control group were administered with normal saline (100 μL for each mouse). […]
After the end of experiment, blood samples were collected from the eyeballs of the mice, serum was separated and the serum levels of TC and TG were detected.

diabetic mice [2] = assay: Fasting blood glucose in STZ diabetic mice, intragastric 4 weeks (Example 25); type: in vivo, BALB/c mice
Protocol: Male BALB/c mice at 7 weeks of age, after adapting to the environment for 2 days, were randomly divided into normal control group (10 mice) and model-to-be established groups (70 mice). The mice in the normal control group were fed with normal diet. The mice in the model-to-be established groups were fed with high-fat diet, intraperitoneally injected with streptozotocin (STZ) in citrate buffer at a dose of 100 mg/kg, and then the diabetic mouse model was established. […] The mice with the blood glucouse level higher than 11.0 mmol/L and at the same time having polydipsia and polyuria were selected out as the diabetic mice. Then the selected diabetic mice were randomly divided into four groups: model control group, metformin group, Composition E group and Composition F group, 10 mice in each group. The mice were intragastric administered with the corresponding drugs: normal saline (100 μL for each mouse), metformin (0.05 ml/10 g), Composition E (0.05 ml/10 g) and Composition F (0.05 ml/10 g), respectively, once a day for 4 weeks. The mice in normal control group were administered with normal saline (100 μL for each mouse). The diabetic mice were fed with high-fat diet continuously and drank water freely, and the mice in normal control group were fed with normal diet and drank water freely.

[3] = tested on: mouse models of type 2 diabetes; assay: Oral glucose tolerance test after 4-week treatment (Example 20); type: in vivo, KK mice; conditions: glucose 2.5 g/kg by gavage one hour after last dose of 4-week gavage treatment
Protocol: 2.4 Oral glucose tolerance test: one hour after the last administration, the remaining mice in the diabetic model control group, metformin treatment group, polypeptide treatment group and normal control group (10 mice in each group) after the selection in experiment 2.3 were administered by gavage with glucose at a dose of 2.5 g/kg.

[4] = tested on: mouse models of type 2 diabetes; assay: Hypoglycemic activity of solid compositions, STZ/high-fat diet diabetic mice, gavage 4 weeks (Example 24); type: in vivo; conditions: fasting; STZ + high-fat diet C57BL/6 mice; gavage once a day; compositions 2 mg/mL polypeptide O, metformin 20 mg/mL (100 mg/Kg), each 0.05 ml/10 g
Protocol: Male C57BL/6 mice at 4 weeks of age, after adapting to the environment for 5 days, were randomly divided into normal control group (10 mice) and model-to-be established groups (90 mice). The mice in the normal control group were fed with normal diet. The mice in the model-to-be established groups were fed with high-fat diet and intraperitoneally injected with streptozotocin (STZ) in citrate buffer at a dose of 45 mg/kg. After injection, the mice were fasted for 1.5 hours and injected for 5 consecutive days, and then the diabetic mouse model was established. […] The mice with the fasting blood glucouse level between 10.0 and 20.0 mmol/L and at the same time having polydipsia and polyuria were selected out as the diabetic mice. Then, the selected diabetic mice were randomly divided into five groups: model control group, metformin group, Composition D group, […], and […], 10 mice in each group. The mice were administered by gavage with the corresponding drug: normal saline (100 μL for each mouse), metformin (0.05 ml/10 g), composition D (0.05 ml/10 g), composition E (0.05 ml/10 g) and composition F (0.05 ml/10 g), respectively, once a day for 4 weeks. The mice in normal control group were administered with normal saline (100 μL for each mouse). The diabetic mice were fed with high-fat diet continuously and drank water freely, and the mice in normal control group were fed with normal diet and drank water freely.

[5] = tested on: mouse models of type 2 diabetes; assay: Insulin tolerance test after 4-week treatment (Example 20); type: in vivo, KK mice; conditions: insulin 0.5 U/mL at 0.05 ml/10 g s.c. one hour after last dose of 4-week gavage treatment
[6] = tested on: mouse models of type 2 diabetes; assay: Pancreas weight, H&E staining and immunohistochemistry after 4-week treatment (Example 20); type: in vivo; conditions: KK mice sacrificed after treatment for four weeks by gavage
Description: 2.5 All mice were sacrificed after treatment for four weeks, and the pancreatic tissues were weighed, stained with H&E and detected by immunohistochemistry.

[7] = tested on: mouse models of type 2 diabetes; assay: Polypeptide mixture vs metformin, mouse models of type 2 diabetes, single gavage (Example 17); conditions: KK mice, polypeptide 2 mg/mL, metformin 20 mg/mL, each 0.05 ml/10 g
[8] = tested on: mouse models of type 2 diabetes; assay: Blood glucose during 4-week gavage treatment, polypeptide mixture vs metformin (Example 20); conditions: KK mice, metformin 20 mg/mL, each 0.05 ml/10 g
[9] = fasting, STZ (100 mg/kg) + high-fat diet BALB/c mice, intragastric once a day, compositions 2 mg/mL polypeptide O, metformin 200 mg/mL (1000 mg/kg), each 0.05 ml/10 g
[10] = gavage once a day, polypeptide tablet suspension 2 mg/ml

CN(C)C(=N)N=C(N)N [Metformin, Metformin hydrochloride]
TC (diabetic mice [1]): 2.32 ± 0.78 mmol/L
TG (diabetic mice [1]): 1.87 ± 1.26 mmol/L
Blood glucose level after four weeks (diabetic mice [2]; [9]): 8.0 ± 0.7 mmol/L
Blood glucose level after one week (diabetic mice [2]; [9]): 12.6 ± 0.7 mmol/L
Blood glucose level after three weeks (diabetic mice [2]; [9]): 12.3 ± 1.0 mmol/L
Blood glucose level after two weeks (diabetic mice [2]; [9]): 13.5 ± 0.7 mmol/L
control of blood glucose (conclusion) (diabetic mice [2]; metformin at ultra-high-dose 1000 mg/kg): could not control blood glucose effectively
0 min blood glucose level [3]: 6.8 ± 0.8 mmol/L
30 min blood glucose level [3]: 16.8 ± 4.1 mmol/L
60 min blood glucose level [3]: 13.4 ± 2.4 mmol/L
90 min blood glucose level [3]: 10.6 ± 3.2 mmol/L
120 min blood glucose level [3]: 8.2 ± 1.7 mmol/L
Blood glucose level after four weeks [4]: 9.2 ± 0.9 mmol/L
Blood glucose level after one week [4]: 11.9 ± 0.6 mmol/L
Blood glucose level after three weeks [4]: 11.3 ± 1.2 mmol/L
Blood glucose level after two weeks [4]: 13.2 ± 0.5 mmol/L
0 min blood glucose level [5]: 6.8 ± 0.8 mmol/L
30 min blood glucose level [5]: 4.1 ± 1.1 mmol/L
60 min blood glucose level [5]: 4.8 ± 1.2 mmol/L
90 min blood glucose level [5]: 5.4 ± 0.7 mmol/L
120 min blood glucose level [5]: 6.2 ± 1.3 mmol/L
Pancreas weight/body weight (%) [6]: 1.32 ± 0.06%
Blood glucose level at 15 min after administration [7]: 12.6 ± 1.2 mmol/L
Blood glucose level at 30 min after administration [7]: 10.4 ± 0.9 mmol/L
Blood glucose level at 45 min after administration [7]: 9.3 ± 0.8 mmol/L
Blood glucose level at 60 min after administration [7]: 8.2 ± 0.5 mmol/L
Blood glucose level prior to administration ([7]; baseline): 14.2 ± 1.1 mmol/L
Initial blood glucose level ([8]; gavage once a day for 4 weeks, polypeptide tablets (mixture:hydroxypropyl methylcellulose 8:2) suspension 2 mg/ml, baseline): 9.3 ± 1.1 mmol/L
Blood glucose level after four weeks [8, 10]: 6.8 ± 0.8 mmol/L
Blood glucose level after one week [8, 10]: 8.1 ± 1.1 mmol/L
Blood glucose level after three weeks [8, 10]: 7.3 ± 1.2 mmol/L
Blood glucose level after two weeks [8, 10]: 7.2 ± 0.9 mmol/L
